Experiments:
[1] = system: Alport syndrome model mice; test: in vivo drug efficacy in Alport syndrome model mice; set-up: species or system COL4A5 homozygote knockout mice; details: Control-4 group: irbesartan (50 mg/kg) orally once a day for 17 weeks; 16 weeks after the start of administration
Protocol: The in vivo drug efficacy of the present compound on Alport syndrome was evaluated using COL4A5 (causative gene of Alport syndrome) knockout mice.
Male wild-type mice and female COL4A5 hetero knockout mice were naturally crossed to obtain offspring. Genotypes of the offspring were confirmed and male COL4A5 homozygote knockout mice were obtained.
The obtained animals were fed ad libitum with CE-2 (CLEA Japan), and watered ad libitum.
The mice were divided into groups using a statistical analysis system EXSUS10.0 so that the body weight and the urine albumin/urine creatinine value at the time of 6 weeks of age were almost uniform in each group.
The test substance and water for injection (Otsuka Pharmaceutical) as a vehicle were orally administered at 10 mL/kg once a day for 17 weeks.
The Control-3 group was orally administered water for injection at 10 mL/kg once a day for 17 weeks. In the Control-4 group, water for injection and an administration solution of irbesartan which is a renin angiotensin system inhibitor were mixed in equal amounts at 5 mL/kg each, and orally administered once a day for 17 weeks.
The administration dose is described in Table 11.
Blood collection was performed by cutting the tail vein of the mice a little with a razor and using a hematocrit capillary. Blood was centrifuged to obtain plasma. Urine was collected for about 16 hours in a metabolic cage for mouse under conditions in which a solid feed and water can be freely taken. The obtained urine sample was centrifuged, and the supernatant was subjected to measurement. Urine albumin (U-ALB) and urine creatinine (U-CRE) concentrations were measured by an automatic analyzer Hitachi 7180 (Hitachi High-Tech), and the creatinine concentration in plasma was measured using LabAssay Creatinine (Fujifilm Wako Shibayagi).

[2] = biological target: T1, EP1 (Homo sapiens, UniProt P34995); test: agonist activity on human EP1 receptor (intracellular calcium concentration, EP1-CHO cells); assay type: cell-based
T1 construct: expressed in transfected cells; host or cells: CHO (EP1-CHO)
T1 sequence (P34995 1-402): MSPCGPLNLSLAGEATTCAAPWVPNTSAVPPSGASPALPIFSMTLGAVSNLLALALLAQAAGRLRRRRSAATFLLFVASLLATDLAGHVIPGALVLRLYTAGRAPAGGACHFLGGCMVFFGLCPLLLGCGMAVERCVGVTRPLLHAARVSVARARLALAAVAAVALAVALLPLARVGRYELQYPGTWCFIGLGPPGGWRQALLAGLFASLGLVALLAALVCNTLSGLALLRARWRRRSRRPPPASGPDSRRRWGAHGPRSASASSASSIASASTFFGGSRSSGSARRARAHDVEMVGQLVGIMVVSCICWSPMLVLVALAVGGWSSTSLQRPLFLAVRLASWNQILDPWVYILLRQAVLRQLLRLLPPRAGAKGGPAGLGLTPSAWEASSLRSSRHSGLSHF
Protocol: Using CHO cells (EP1-CHO, EP2-CHO, EP3-Chem1, EP4-CHO and IP-CHO) on which various human prostanoid receptors were forcibly expressed, the agonist activity of the test compound on the various prostanoid receptors was examined using the intracellular calcium concentration for EP1 and EP3, and the intracellular cyclic AMP (hereinafter, abbreviated as cAMP) production amount for EP2, EP4 and IP as indices.
The test compound and control substances (PGE2 and iloprost) were dissolved in dimethyl sulfoxide (DMSO) to prepare a 10 mmol/L solution. The prepared 10 mmol/L solution was thawed at the time of use, serially diluted using DMSO, and diluted with a buffer solution 1 for measurement (Hank's balanced salt solution (Thermofischer scientific) containing 1 w/v% human serum albumin (Sigma), 2 µmol/L indomethacin (Sigma), 2.5 mmol/L probenecid, and 10 mmol/L HEPES-NaOH (pH7.4)) or a buffer solution 2 for measurement (D-PBS (Nacalai Tesque) containing 0.1 w/v% human serum albumin, 2 µmol/L diclofenac (Sigma), and 1 mmol/L 3-isobutyl-1-methylxanthine (Sigma)) to perform experiments.
The intracellular calcium concentration was measured using Calcium 6 Assay Kit (Molecular Devices). On the day before the measurement, EP1-CHO and EP3-Chem 1 were obtained by thawing the frozen cells, suspended using Ham's F-12 medium (Thermofischer scientific) containing inactivated (56°C, 30 min) 9.8 vol% FBS (Thermofischer scientific) and penicillin-streptomycin (Nacalai Tesque), seeded into a 96 well UV plate to 1.0×10^5 cells per well, and static cultured at 37°C in the presence of 5%CO2. On the day of the measurement, the medium was removed, followed by addition of 120 µL of the Calcium indication solution dissolved in the buffer solution 1 for measurement and incubation at room temperature under light-shielding for about 1 hour. After 1 hour incubation, the 96 well UV plates were set in a fluorescence spectrophotometer (FDSS-7000, Hamamatsu Photonics) to measure the intracellular calcium concentration. Thirty microliters of the buffer solution 1 for measurement containing various concentrations of agonists were added, and the mixture was reacted. The intracellular calcium concentration was measured by irradiating the cells with 480 nm excitation light and measuring the fluorescence intensity at 540 nm.

[3] = system: diabetes model rat; test: inhibitory effect on the amount of albumin excreted in urine in diabetes model rat; assay type: in vivo, SDT Fatty rats; details: urine collected for 24 hours, urine albumin/urine creatinine ratio
Protocol: Male SDT Fatty rats aged 6 weeks (CLEA Japan) were purchased and preliminarily bred for 1 week or more. Experiments were performed at 8 to 16 weeks of age. The animals were fed ad libitum with solid feed CRF-1 (Oriental Yeast) and watered ad libitum.
Animals were housed in metabolic cages 2 days before test substance administration, and urine was collected for 24 hours. On the day before administration of the test substance, urine albumin and urine creatinine were measured, and grouping was performed by a stratification randomization method based on the urine albumin/urine creatinine ratio (ACR) and the average value of body weights for each group.
The compounds (test substances) of Examples 9-5, 10, 11, 12, 25-7 and 32, and water for injection (Otsuka Pharmaceutical) as a vehicle were orally administered once at 5 mL/kg. The administration dose is described in Table 3.
For evaluation of the amount of albumin excreted in urine of each animal, a urine albumin/urine creatinine ratio (ACR) was measured. After administration of the test substance, the animals were housed in metabolic cages, and urine was collected for 24 hours. Each concentration of urine albumin and urine creatinine was measured using an automatic analyzer 7180 (Hitachi High-Tech), and ACR was calculated by dividing the urine albumin concentration by the urine creatinine concentration.

SMILES | EC50 [2] | also measured
CCCCC1=NC2(CCCC2)C(=O)N1Cc1ccc(-c2ccccc2-c2nnn[nH]2)cc1 [Irbesartan, irbesartan, reference compound] |  | Plasma creatinine mean [1]: 0.771 mg/dL; Urine Albumin/ Urine Creatinine Ratio mean [1]: 31414.47 mg/g
O=C(O)c1ccc2c(c1)O[C@H]1C[C@@H](O)[C@H](/C=C/C(O)C3(c4ccc(F)cc4)CCC3)[C@H]1CC2 (stereo partly drawn) [Example 7-13, (1R,2R,3aS,10aR)-1-{(1E,3ξ)-3-[1-(4-fluorophenyl)cyclobutyl]-3-hydroxy-1-propen-1-yl}-2-hydroxy-2,3,3a,9,10,10a-hexahydro-1H-benzo[b]cyclopenta[f]oxepine-6-carboxylic acid] | 6.3 µM | 
O=C(O)c1ccc2c(c1F)O[C@H]1C[C@@H](Cl)[C@H](/C=C/C(O)C3(c4ccccc4F)COC3)[C@H]1CC2 (stereo partly drawn) [Example 32, (1R,2R,3aS,10aR)-2-chloro-5-fluoro-1-{(1E,3ξ)-3-[3-(2-fluorophenyl)-3-oxetanyl]-3-hydroxy-1-propen-1-yl}-2,3,3a,9,10,10a-hexahydro-1H-benzo[b]cyclopenta[f]oxepine-6-carboxylic acid] | > 10 µM | ACR mean ([3]; 0.03 mg/kg orally once): 3391 µg/mg; ACR mean ([3]; 0.1 mg/kg orally once): 3086.1 µg/mg
Cc1c(C(=O)O)ccc2c1O[C@H]1C[C@@H](O)[C@H](/C=C/C(O)C3(c4ccc(F)cc4)CCC3)[C@H]1CC2 (stereo partly drawn) [Example 9-5, (1R,2R,3aS,10aR)-1-{(1E,3ξ)-3-[1-(4-fluorophenyl)cyclobutyl]-3-hydroxy-1-propen-1-yl}-2-hydroxy-5-methyl-2,3,3a,9,10,10a-hexahydro-1H-benzo[b]cyclopenta[f]oxepine-6-carboxylic acid] | > 10 µM | ACR mean ([3]; 0.1 mg/kg orally once): 4691.4 µg/mg; ACR mean ([3]; 0.3 mg/kg orally once): 4466.2 µg/mg
CCCC[C@H](C)C(O)/C=C/[C@H]1OC[C@@H]2Oc3c(ccc(C(=O)O)c3C)CC[C@@H]21 (stereo partly drawn) [Example 41, (1R,3aR,10aR)-1-[(1E,3ξ,4S)-3-hydroxy-4-methyl-1-octen-1-yl]-5-methyl-1,3,3a,9,10,10a-hexahydrofuro[3,4-b][1]benzoxepine-6-carboxylic acid] | > 10 µM | 
O=C(O)c1ccc2c(c1F)O[C@H]1C[C@@H](F)[C@H](/C=C/C(O)C3(c4ccccc4)COC3)[C@H]1CC2 (stereo partly drawn) [Example 28-2, (1R,2R,3aS,10aR)-2,5-difluoro-1-[(1E,3ξ)-3-hydroxy-3-(3-phenyl-3-oxetanyl)-1-propen-1-yl]-2,3,3a,9,10,10a-hexahydro-1H-benzo[b]cyclopenta[f]oxepine-6-carboxylic acid] | > 10 µM | 
Cc1c(C(=O)O)ccc2c1O[C@H]1C[C@@H](O)[C@H](/C=C/CC(C)(O)CCC(C)C)[C@H]1CC2 (stereo partly drawn) [Example 13, (1R,2R,3aS,10aR)-2-hydroxy-1-[(1E,4ξ)-4-hydroxy-4,7-dimethyl-1-octen-1-yl]-5-methyl-2,3,3a,9,10,10a-hexahydro-1H-benzo[b]cyclopenta[f]oxepine-6-carboxylic acid] | > 10 µM | 
